Measurements from PubChem BioAssay AID248 (DTP/NCI, 2004).
Several values for one entry are separate records, joined by “and”; a condition that tells them apart may be missing. Equal entries are not always repeated. Toxic doses and inconclusive results are not listed. Cut-off read from the data, not from the text of the source: active = T/C of 150% or more; inactive = T/C below 125%. Peptide text beside a SMILES is read from it. * marks the point of attachment. Cbz = O=C(OCc1ccccc1)*

Test system: L1210 leukemia ip in BDF1 mice, survival T/C
Test: NCI In Vivo Anticancer Drug Screen. Data for tumor model L1210 Leukemia (intraperitoneal) in B6D2F1 (BDF1) mice
Details: endpoint: mean survival time, higher = longer survival
Summary of the method: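 Transplanted-tumor mice were given test agent; controls received vehicle only. Survival readings from the two groups were divided (treated over control).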

[1] = dose: 100.0 mg/kg/injection, schedule: Q01DX009 (ip), vehicle: saline with Tween-80
[2] = dose: 200.0 mg/kg/injection, schedule: Q01DX009 (ip), vehicle: saline with Tween-80
[3] = dose: 400.0 mg/kg/injection, schedule: Q01DX009 (ip), vehicle: saline with Tween-80
[4] = dose: 100.0 mg/kg/injection, schedule: Q01DX009 (ip), vehicle: Klucel (hydroxypropylcellulose) (HPC)
[5] = dose: 100.0 mg/kg/injection, schedule: Q04DX003 (ip), vehicle: Klucel (hydroxypropylcellulose) (HPC)
[6] = dose: 200.0 mg/kg/injection, schedule: Q01DX009 (ip), vehicle: Klucel (hydroxypropylcellulose) (HPC)
[7] = dose: 200.0 mg/kg/injection, schedule: Q04DX003 (ip), vehicle: Klucel (hydroxypropylcellulose) (HPC)
[8] = dose: 400.0 mg/kg/injection, schedule: Q01DX009 (ip), vehicle: Klucel (hydroxypropylcellulose) (HPC)
[9] = dose: 400.0 mg/kg/injection, schedule: Q04DX003 (ip), vehicle: Klucel (hydroxypropylcellulose) (HPC)
[10] = dose: 25.0 mg/kg/injection, schedule: Q01DX001 (ip), vehicle: saline
[11] = dose: 100.0 mg/kg/injection, schedule: Q04DX003 (ip), vehicle: saline with Tween-80
[12] = dose: 50.0 mg/kg/injection, schedule: Q01DX001 (ip), vehicle: saline
[13] = dose: 100.0 mg/kg/injection, schedule: Q01DX001 (ip), vehicle: saline

Measured: T/C

CCCCCCCCCCNC(=O)C[n+]1cccc(C(=O)Nc2ccc(Cl)cc2)c1
inactive: dose: 6.25 mg/kg/injection, schedule: Q01DX009 (ip), vehicle: acetone 97 % of control | dose: 12.5 mg/kg/injection, schedule: Q01DX009 (ip), vehicle: acetone 92 % of control | dose: 12.5 mg/kg/injection, schedule: Q04DX003 (ip), vehicle: saline 108 % of control | dose: 25.0 mg/kg/injection, schedule: Q04DX003 (ip), vehicle: saline 96 % of control

COc1ccc(C)cc1NC(=O)SCc1ccccc1
inactive: [1] 100 % of control | [2] 101 % of control | [3] 94 % of control

O=C(O)CNC(=O)CNC(=O)OCc1ccccc1 (Cbz-Gly-Gly-OH)
inactive: [4] 95 % of control | [5] 97 % of control | [6] 95 % of control | [7] 101 % of control | [8] 100 % of control | [9] 94 % of control

COc1ccc(COC(=O)CN2C(=O)c3ccccc3C2=O)cc1
inactive: [4] 98 % of control | [5] 95 % of control | [6] 107 % of control | [7] 95 % of control | [8] 98 % of control | [9] 93 % of control

Cc1c(O)ccc2ccc(=O)oc12
inactive: dose: 100.0 mg/kg/injection, schedule: Q01DX001 (ip), vehicle: carboxymethylcellulose (CMC) 98 % of control | dose: 200.0 mg/kg/injection, schedule: Q01DX001 (ip), vehicle: carboxymethylcellulose (CMC) 90 % of control | dose: 400.0 mg/kg/injection, schedule: Q01DX001 (ip), vehicle: carboxymethylcellulose (CMC) 93 % of control

COc1nc(SC)nc2[nH]ccc12
inactive: dose: 75.0 mg/kg/injection, schedule: Q01DX001 (ip), vehicle: other 103 % of control | dose: 150.0 mg/kg/injection, schedule: Q01DX001 (ip), vehicle: other 100 % of control | dose: 300.0 mg/kg/injection, schedule: Q01DX001 (ip), vehicle: other 97 % of control

Cc1ccc(NS(=O)(=O)c2ccc(F)cc2)cc1Cl
inactive: [4] 92 % of control | [5] 100 % of control | [6] 95 % of control | [7] 97 % of control | [8] 95 % of control | [9] 97 % of control

CC(=O)OC(C(=O)N(c1ccccc1)c1ccccc1)c1ccccc1 (stereo not drawn)
inactive: [1] 98 % of control | [2] 95 % of control | [3] 93 % of control

C=CCN(C(=O)OCC)c1ccccc1
inactive: [4] 110 % of control | [5] 95 % of control | [6] 108 % of control | [7] 106 % of control | [8] 93 % of control | [9] 106 % of control

N#CSc1nc2ccccc2s1
inactive: dose: 6.0 mg/kg/injection, schedule: Q01DX001 (ip), vehicle: saline 88 % of control | dose: 12.0 mg/kg/injection, schedule: Q01DX001 (ip), vehicle: saline 89 % of control | [10] 98 % of control | dose: 25.0 mg/kg/injection, schedule: Q04DX003 (ip), vehicle: saline with Tween-80 92 % of control | dose: 50.0 mg/kg/injection, schedule: Q04DX003 (ip), vehicle: saline with Tween-80 91 % of control | [11] 96 % of control

CC(=O)c1ccc(N2CCN(C)CC2)cc1
inactive: [12] 100 % of control | [13] 102 % of control

CCCCCCCCCCCCCCCCCCCCC(C(=O)O)S(=O)(=O)O (stereo not drawn)
inactive: dose: 100.0 mg/kg/injection, schedule: Q04DX003 (ip), vehicle: saline 95 % of control | dose: 400.0 mg/kg/injection, schedule: Q04DX003 (ip), vehicle: saline 96 % of control

Cc1c2ccccc2nc(CNC2CCCCC2)[n+]1[O-]
inactive: dose: 12.5 mg/kg/injection, schedule: Q01DX001 (ip), vehicle: saline 98 % of control | [10] 97 % of control | [12] 90 % of control

Cc1cc(N=Nc2c(C)ccc3ncccc23)ccc1N
inactive: dose: 3.12 mg/kg/injection, schedule: Q01DX001 (ip), vehicle: DMSO 90 % of control | dose: 6.25 mg/kg/injection, schedule: Q01DX001 (ip), vehicle: DMSO 98 % of control | dose: 12.5 mg/kg/injection, schedule: Q01DX001 (ip), vehicle: DMSO 98 % of control

NC(=O)NN=C1CCCCCCCCCCC1
inactive: dose: 100.0 mg/kg/injection, schedule: Q01DX001 (ip), vehicle: other 95 % of control | [11] 97 % of control | dose: 200.0 mg/kg/injection, schedule: Q01DX001 (ip), vehicle: other 95 % of control | dose: 200.0 mg/kg/injection, schedule: Q04DX003 (ip), vehicle: saline with Tween-80 105 % of control | dose: 400.0 mg/kg/injection, schedule: Q01DX001 (ip), vehicle: other 103 % of control | dose: 400.0 mg/kg/injection, schedule: Q04DX003 (ip), vehicle: saline with Tween-80 94 % of control

O=C(O)C(Br)C(Br)C(=O)Nc1ccc(F)cc1 (stereo not drawn)
inactive: dose: 100.0 mg/kg/injection, schedule: Q04DX002 (ip), vehicle: saline with Tween-80 104 % of control | dose: 200.0 mg/kg/injection, schedule: Q04DX002 (ip), vehicle: saline with Tween-80 93 % of control

CC1CCCCN1C(=O)Nc1cccc(C(F)(F)F)c1 (stereo not drawn)
inactive: dose: 100.0 mg/kg/injection, schedule: Q01DX001 (ip), vehicle: gum acacia 100 % of control and 103 % of control | dose: 100.0 mg/kg/injection, schedule: Q01DX009 (ip), vehicle: gum acacia 107 % of control | dose: 100.0 mg/kg/injection, schedule: Q04DX002 (ip), vehicle: gum acacia 93 % of control | dose: 100.0 mg/kg/injection, schedule: Q04DX003 (ip), vehicle: gum acacia 100 % of control and 101 % of control | dose: 200.0 mg/kg/injection, schedule: Q01DX001 (ip), vehicle: gum acacia 95 % of control and 105 % of control | dose: 200.0 mg/kg/injection, schedule: Q01DX009 (ip), vehicle: gum acacia 106 % of control | dose: 200.0 mg/kg/injection, schedule: Q04DX002 (ip), vehicle: gum acacia 96 % of control and 98 % of control | dose: 200.0 mg/kg/injection, schedule: Q04DX003 (ip), vehicle: gum acacia 95 % of control | dose: 400.0 mg/kg/injection, schedule: Q01DX001 (ip), vehicle: gum acacia 92 % of control and 102 % of control | dose: 400.0 mg/kg/injection, schedule: Q01DX009 (ip), vehicle: gum acacia 102 % of control | dose: 400.0 mg/kg/injection, schedule: Q04DX002 (ip), vehicle: gum acacia 93 % of control and 86 % of control | dose: 400.0 mg/kg/injection, schedule: Q04DX003 (ip), vehicle: gum acacia 98 % of control and 100 % of control

O=c1c(N=Nc2ccc(Cl)cc2)c(O)n(-c2ccccc2Cl)c(=S)n1-c1ccccc1
inactive: dose: 25.0 mg/kg/injection, schedule: Q01DX001 (ip), vehicle: Klucel (hydroxypropylcellulose) (HPC) 92 % of control | dose: 50.0 mg/kg/injection, schedule: Q01DX001 (ip), vehicle: Klucel (hydroxypropylcellulose) (HPC) 94 % of control | dose: 100.0 mg/kg/injection, schedule: Q01DX001 (ip), vehicle: Klucel (hydroxypropylcellulose) (HPC) 89 % of control

CS(=O)CC(O)(c1ccccc1)c1ccccc1 (stereo not drawn)
inactive: [12] 102 % of control | [13] 101 % of control | dose: 200.0 mg/kg/injection, schedule: Q01DX001 (ip), vehicle: saline 98 % of control | dose: 400.0 mg/kg/injection, schedule: Q01DX001 (ip), vehicle: saline 97 % of control
